Reference: publication PMC7670682 (BMC Pharmacology & Toxicology, 2020)
Entries after “also recorded” stand apart in the source; their conditions may differ. Like-named read-outs stand apart in the source and are kept apart here. Marks after values point to notes of the source that are not given here.

Tests used:
OATP-B = test system: OATP-B; design: method as in PMID 16415120; conditions: cited from earlier work
[1] = cited from earlier work
[2] = combined use with St. John’s wort, a CYP3A4 inducer; cited from earlier work
in vivo = conditions: male, Sprague Dawley, rat, po, 30 mg/kg
CYP3A = conditions: in vitro, different CYP3A substrates; read-out: IC50 of CYP3A inhibition; cited from earlier work
[3] = after oral administration of imatinib; cited from earlier work
[4] = intragastric administration of green tea, rats
[5] = male, Sprague Dawley, rat, in vivo, po, 30 mg/kg
[6] = metabolite, rats, imatinib 30 mg/kg IG + KTZ 75 mg/kg/day 3 days
[7] = metabolite, rats, imatinib 30 mg/kg IG + h-GS 100 mg/kg/day 21 days
[8] = metabolite, rats, imatinib 30 mg/kg IG + h-GS 100 mg/kg/day 21 days, vs imatinib only
[9] = metabolite, rats, imatinib 30 mg/kg IG + h-GS 100 mg/kg/day 21 days, vs l-GS group
[10] = metabolite, rats, imatinib 30 mg/kg IG + h-GS 100 mg/kg/day 21 days, when GS dose was doubled
[11] = metabolite, rats, imatinib 30 mg/kg IG + h-GS and h-GT 100 mg/kg/day each 21 days
[12] = metabolite, rats, imatinib 30 mg/kg IG + h-GS and h-GT 100 mg/kg/day each 21 days, vs imatinib only
[13] = metabolite, rats, imatinib 30 mg/kg IG + h-GS and h-GT 100 mg/kg/day each 21 days, vs l-GS and l-GT group
[14] = metabolite, rats, imatinib 30 mg/kg IG + h-GT 100 mg/kg/day 21 days
[15] = metabolite, rats, imatinib 30 mg/kg IG + l-GS 50 mg/kg/day 21 days
[16] = metabolite, rats, imatinib 30 mg/kg IG + l-GT 50 mg/kg/day 21 days
[17] = metabolite, rats, imatinib 30 mg/kg IG only (control)
[18] = rats, imatinib 30 mg/kg IG + KTZ 75 mg/kg/day 3 days
[19] = rats, imatinib 30 mg/kg IG + h-GS 100 mg/kg/day 21 days
[20] = rats, imatinib 30 mg/kg IG + h-GS and h-GT 100 mg/kg/day each 21 days
[21] = rats, imatinib 30 mg/kg IG + h-GT 100 mg/kg/day 21 days
[22] = rats, imatinib 30 mg/kg IG + l-GS 50 mg/kg/day 21 days
[23] = rats, imatinib 30 mg/kg IG + l-GS and l-GT 50 mg/kg/day each 21 days
[24] = rats, imatinib 30 mg/kg IG + l-GT 50 mg/kg/day 21 days
[25] = rats, imatinib 30 mg/kg IG only (control)

**Q.** With `Oc1cc(O)c2c(c1)O[C@H](c1ccc(O)c(O)c1)[C@@H](O)C2` [(+)-catechin] as the compound, how does the “inhibition of estrone-3-sulfate uptake” value (OATP-B; concentration of 100 mM) read?
**A.** 31.7%

**Q.** With `Oc1cc(O)c2c(c1)O[C@H](c1ccc(O)c(O)c1)[C@H](O)C2` [EC, (−)-epicatechin] as the compound, how does the “inhibition of estrone-3-sulfate uptake” value (OATP-B; concentration of 10 mM) read?
**A.** 27.2%

**Q.** What about the bioavailability [1, 4] of the same compound?
**A.** 31.2%

**Q.** Which “inhibition of estrone-3-sulfate uptake” value (OATP-B; concentration of 100 mM) does the source give for `Oc1cc(O)c2c(c1)O[C@H](c1cc(O)c(O)c(O)c1)[C@H](O)C2` [EGC, (−)-epigallocatechin] here?
**A.** 29.1%

**Q.** And the bioavailability ([1]; rat, in vivo, po)?
**A.** 13.7%

**Q.** For `O=C(O[C@@H]1Cc2c(O)cc(O)cc2O[C@@H]1c1cc(O)c(O)c(O)c1)c1cc(O)c(O)c(O)c1` [EGCG, (−)-epigallocatechin-3-gallate], which “inhibition of estrone-3-sulfate uptake” value (OATP-B; concentration of 10 mM) is on record?
**A.** 29.5%

**Q.** And the bioavailability [1, 4]?
**A.** 0.1%

**Q.** What does the source list for `Cc1ccc(NC(=O)c2ccc(CN3CCN(C)CC3)cc2)cc1Nc1nccc(-c2cccnc2)n1` [Imatinib, reference compound]?
**A.** AUC0∞ [5]: 105,160.8 ± 75,643.2 ng^.h/mL; tmax [5]: 4.8 ± 2.3 h; decrease in t0.5 (rats, imatinib 30 mg/kg IG + h-GS 100 mg/kg/day 21 days, vs imatinib only): ↓ 16.1%*; decrease in t0.5 (rats, imatinib 30 mg/kg IG + h-GS 100 mg/kg/day 21 days, vs imatinib only, listed as imatinib): 16.1%; decrease in t0.5 (rats, imatinib 30 mg/kg IG + h-GS and h-GT 100 mg/kg/day each 21 days, vs imatinib only): 21.9%; decrease in t0.5 (rats, imatinib 30 mg/kg IG + h-GS and h-GT 100 mg/kg/day each 21 days, vs l-GS and l-GT group): 23.1%; decrease in t0.5 (rats, imatinib 30 mg/kg IG + h-GT 100 mg/kg/day 21 days, vs imatinib only): ↓ 15.8%*; decrease in t0.5 (rats, imatinib 30 mg/kg IG + h-GT 100 mg/kg/day 21 days, vs imatinib only, listed as imatinib): 15.8%; increase in t0.5 (rats, imatinib 30 mg/kg IG + l-GS and l-GT 50 mg/kg/day each 21 days, vs l-GS group): 1.1 fold; increase in t0.5 (rats, imatinib 30 mg/kg IG + l-GS and l-GT 50 mg/kg/day each 21 days, vs l-GT group): 1.3 fold; reduction of the area under the curve (AUC) [2]: 30%; Cmax (in vivo): 6400 ± 3160 ng/mL

**Q.** For `Cc1ccc(NC(=O)c2ccc(CN3CCNCC3)cc2)cc1Nc1nccc(-c2cccnc2)n1` [N-desmethyl imatinib], which t0.5 [6] is on record?
**A.** 9.9 ± 4.4 h

**Q.** What about the tmax [6] of the same compound?
**A.** 7.5 ± 1.0 h

**Q.** And the MRT [7]?
**A.** 9.5 ± 1.0 h

**Q.** What about the t0.5 [7] of the same compound?
**A.** 7.1 ± 0.9 h

**Q.** And the tmax [7]?
**A.** 4.7 ± 2.0 h

**Q.** And the “decrease in AUC0∞” value [8]?
**A.** 73.0%

**Q.** And the “decrease in Cmax” value [8]?
**A.** 67.8%

**Q.** And the “increase in CL/F” value [8]?
**A.** 3.7 fold

**Q.** What about the “increase in Vz/F” value [8] of the same compound?
**A.** 4.1 fold

**Q.** And the “decrease in AUC0∞” value [9]?
**A.** 58.5%

**Q.** And the “decrease in Cmax” value [9]?
**A.** 63.3%

**Q.** What about the “increase in CL/F” value [9] of the same compound?
**A.** 2.5 fold

**Q.** And the “increase in Vz/F” value [9]?
**A.** 2.9 fold

**Q.** And the “decrease in AUC0∞” value [10]?
**A.** ~ 2 fold

**Q.** What about the “decrease in Cmax” value [10] of the same compound?
**A.** ~ 2 fold

**Q.** What about the MRT [11] of the same compound?
**A.** 11.9 ± 2.3 h

**Q.** What about the tmax [11] of the same compound?
**A.** 4.8 ± 2.2 h

**Q.** What about the “increase in t0.5” value (metabolite, rats, imatinib 30 mg/kg IG + h-GS and h-GT 100 mg/kg/day each 21 days, vs h-GS group) of the same compound?
**A.** 1.5 fold

**Q.** And the “increase in t0.5” value (metabolite, rats, imatinib 30 mg/kg IG + h-GS and h-GT 100 mg/kg/day each 21 days, vs h-GT group)?
**A.** 1.4 fold

**Q.** What about the “decrease in AUC0∞” value [12] of the same compound?
**A.** 72.1%

**Q.** And the “decrease in Cmax” value [12]?
**A.** 71.5%

**Q.** And the “increase in CL/F” value [12]?
**A.** 5.3 fold

**Q.** And the “increase in Vz/F” value [12]?
**A.** 8.7 fold

**Q.** And the “increase in t0.5” value [12]?
**A.** 1.6 fold

**Q.** What about the “decrease in AUC0∞” value [13] of the same compound?
**A.** 75.8%

**Q.** And the “decrease in Cmax” value [13]?
**A.** 71.9%

**Q.** And the “increase in CL/F” value [13]?
**A.** 6.5 fold

**Q.** What about the “increase in Vz/F” value [13] of the same compound?
**A.** 8.8 fold

**Q.** What about the “increase in t0.5” value [13] of the same compound?
**A.** 1.3 fold

**Q.** What about the “increase in the terminal half-life” value (metabolite, rats, imatinib 30 mg/kg IG + h-GS and h-GT 100 mg/kg/day each 21 days, vs other high dose groups (h-GS or h-GT, not specified)) of the same compound?
**A.** 1.4 fold

**Q.** And the MRT [14]?
**A.** 11.9 ± 2.6 h

**Q.** What about the tmax [14] of the same compound?
**A.** 5.2 ± 2.6 h

**Q.** What about the Cmax [15] of the same compound?
**A.** 408.8 ± 113.6 ng/mL

**Q.** And the t0.5 [15]?
**A.** 6.2 ± 0.5 h

**Q.** What about the tmax [15] of the same compound?
**A.** 4.2 ± 1.0 h

**Q.** What about the tmax (metabolite, rats, imatinib 30 mg/kg IG + l-GS and l-GT 50 mg/kg/day each 21 days) of the same compound?
**A.** 5.8 ± 2.6 h

**Q.** What about the effect on pharmacokinetics (metabolite, rats, imatinib 30 mg/kg IG + l-GS and l-GT 50 mg/kg/day each 21 days, vs imatinib only) of the same compound?
**A.** no significant effects; also recorded: not significantly affected

**Q.** What about the “increase in AUC0∞” value (metabolite, rats, imatinib 30 mg/kg IG + l-GS and l-GT 50 mg/kg/day each 21 days, vs l-GS group) of the same compound?
**A.** 1.8 fold

**Q.** What about the “increase in AUC0∞” value (metabolite, rats, imatinib 30 mg/kg IG + l-GS and l-GT 50 mg/kg/day each 21 days, vs l-GT group) of the same compound?
**A.** 6.1 fold

**Q.** And the MRT [16]?
**A.** 11.2 ± 1.8 h

**Q.** And the t0.5 [16]?
**A.** 8.0 ± 0.7 h

**Q.** What about the tmax [16] of the same compound?
**A.** 5.3 ± 1.6 h

**Q.** What about the “AUC0∞” value [17] of the same compound?
**A.** 7143.3 ± 2165.3 ng^.h/mL

**Q.** And the Cmax [17]?
**A.** 465.6 ± 94.0 ng/mL

**Q.** What about the MRT [17] of the same compound?
**A.** 11.6 ± 3.8 h

**Q.** And the t0.5 [17]?
**A.** 6.6 ± 0.5 h

**Q.** And the tmax [17]?
**A.** 6.7 ± 2.1 h

**Q.** What about the “differences in pharmacokinetic parameters” value (metabolite, rats, imatinib 30 mg/kg IG, l-GT vs h-GT group) of the same compound?
**A.** no significant differences

**Q.** What about the “AUC0∞ metabolite/AUC0∞ drug percentage” value [18] of the same compound?
**A.** 3.3%

**Q.** What about the “Cmax (metabolite) /Cmax (drug) percentage” value (“Cmax … (drug) percentage” below) [18] of the same compound?
**A.** 3.4%

**Q.** And the “AUC0∞ metabolite/AUC0∞ drug percentage” value [19]?
**A.** 6.6%

**Q.** What about the “Cmax … (drug) percentage” value [19] of the same compound?
**A.** 6.0%

**Q.** And the “AUC0∞ metabolite/AUC0∞ drug percentage” value [20]?
**A.** 4.0%

**Q.** What about the “Cmax … (drug) percentage” value [20] of the same compound?
**A.** 3.6%

**Q.** What about the “AUC0∞ metabolite/AUC0∞ drug percentage” value [21] of the same compound?
**A.** 6.0%

**Q.** What about the “Cmax … (drug) percentage” value [21] of the same compound?
**A.** 5.3%

**Q.** And the “AUC0∞ metabolite/AUC0∞ drug percentage” value [22]?
**A.** 7.8%

**Q.** What about the “Cmax … (drug) percentage” value [22] of the same compound?
**A.** 7.9%

**Q.** And the “AUC0∞ metabolite/AUC0∞ drug percentage” value [23]?
**A.** 5.5%

**Q.** And the “Cmax … (drug) percentage” value [23]?
**A.** 5.0%

**Q.** What about the “AUC0∞ metabolite/AUC0∞ drug percentage” value [24] of the same compound?
**A.** 3.5%

**Q.** What about the “Cmax … (drug) percentage” value [24] of the same compound?
**A.** 3.2%

**Q.** What about the “AUC0∞ metabolite/AUC0∞ drug percentage” value [25] of the same compound?
**A.** 6.8%

**Q.** What about the “Cmax … (drug) percentage” value [25] of the same compound?
**A.** 7.3%

**Q.** What about the elimination half-life [3] of the same compound?
**A.** 40 h

**Q.** With (−)-epicatechin-3-gallate [ECG] as the compound, how does the “inhibition of estrone-3-sulfate uptake” value (OATP-B; concentration of 10 mM) read?
**A.** 66.6%
